From patent US20030144233A1, “Conformation-activity relationship of apoptosis-inducing phosphodiester oligonucleotides” (priority 2001, published 2003)

What follows are sequences tested on Human Jurkat T cell leukemia cells (assay: Analysis of apoptosis by Annexin V FITC / propidium iodide staining and flow cytometry). Conditions: Jurkat T cells, oligonucleotides at final concentration of 53 μM; Table 1.
Assay type: cell-based
Procedure: Human Jurkat T cell leukemia cells were obtained from the American Type Culture Collection (Rockville, Md.). The Jurkat T cells were maintained RPMI 1640 medium, supplemented with 10% heat-inactivated (56° C., 30 min) fetal bovine serum (all from Sigma Aldrich, Canada) in an atmosphere of 5% CO2 at 37° C. Cells were seeded at 2×10^5 cells/ml medium in 6-well float-bottomed tissue culture plates and incubated with oligonucleotides at a final concentration of 53 μM.
Apoptosis was measured by staining cells with Annexin V FITC and propidium iodide (PI) (BD Pharmingen, San Diego, Calif. USA) according to the manufacturer's instructions. Flow Cytometry (FCM) determined cellular fluorescence. The FCM and data analysis were carried out using a FACSCalibur instrument (excitation 488 nm, emission 530 nm for Annexin-V and 580 nm for PI) using the program CELLQuest.

| Sequence | Apoptosis (%) |
| --- | --- |
| TCGTTC | 9.5 |
| GGGGGG | 4 |
| GGGCGG | 17 |
| CCGTCC | 5 |
| CTGTCT | 14 |

Same assay, conditions: Jurkat T cells, oligonucleotides at final concentration of 53 μM; Table 2

| Sequence | % apoptosis [%] |
| --- | --- |
| ATGTAT | 37 |
| GGCCGG | 21 |
| AAGTAA | 23 |

Same assay, conditions: Jurkat T cells, oligonucleotides at final concentration of 53 μM; Table 3

| Sequence | % apoptosis [%] |
| --- | --- |
| TGGTTG | 69 |
| GGTTGG | 66 |
| GGAAGG | 59 |
| TGTGTG | 66 |
| GGGTGG | 50 |
| GTGTGT | 67 |

Same assay, conditions: new sequences tested in vitro after prediction; Table 4

| Sequence | ACTUAL % OF CELLS IN APOPTOSIS [%] |
| --- | --- |
| GGGAG | 73 |

Same assay, conditions: phosphodiester versus phosphorothioate backbone

| Sequence | apoptosis-inducing activity [%] |
| --- | --- |
| GGGTGG | 50 |
